Source: patent publication US20230141988A1, “PHARMACEUTICAL COMPOSITION FOR USE IN THE TREATMENT OF NEUROLOGICAL DISEASES” (Aclipse One Inc., priority 2020, published 2023)
Values joined by “and” are separate entries in the source; they are usually repeats but may differ in a detail not shown here. Equal values may be shown once. Read-outs that look alike come from different tables or passages of the source.

Assay: Plasma and CSF pharmacokinetic study, single sublingual, oral or subcutaneous dose, male Beagle dogs
Format: in vivo
Procedure: Animals were fed twice daily. […] Food was withheld until 4-hour post-dose.
All blood samples were collected from a peripheral vessel.
For CSF collection, a polypropylene tube was first weighted to accuracy of 0.1 mg (weight #1). CSF was collected in the tube and weighted again (weight #2). Total CSF weight was calculated by subtracting weight #1 from weight #2. Samples were kept on ice and protected from sunlight. Stabilizing agent (ascorbic acid 200 mg/mL) was added within 60 minutes in a proportion of 10% in CSF. Frozen CSF samples on dry ice were stored at −60° C. or lower until bioanalysis.
All CSF samples were added with the equal volume of plasma. […] 30 μL supernatant was then mixed with 30 μL water, vortex-mixed well and centrifuged at 4° C.
Dilution procedure description: Dilution factor as 5—An aliquot of 2 μL sample was added with 8 μL blank matrix.
The flow rate was 0.6 mL/min. The injection volume was 3 μL. The following gradient was implemented: […]

[1] = male Beagle dogs (fasted), single SL 5 mg/kg, plasma, individual dogs
[2] = male, beagle, dog, in vivo, 5 mg/kg, CSF concentration
[3] = male, beagle, dog, in vivo, 5 mg/kg, plasma concentration
[4] = male, beagle, dog, in vivo, po, 10 mg/kg, CSF concentration
[5] = male, beagle, dog, in vivo, po, 10 mg/kg, plasma concentration
[6] = male, beagle, dog, in vivo, sc, 1 mg/kg, CSF concentration
[7] = male, beagle, dog, in vivo, sc, 1 mg/kg, plasma concentration

Work on `CN1CCc2cccc3c2[C@@H]1Cc1ccc(O)c(O)c1-3` yielded an MRT inf (dog, in vivo, male Beagle dogs (fasted), single PO 10 mg/kg, plasma, individual dogs) of 8.44 h, an MRT inf (dog, in vivo, male Beagle dogs (fasted), single SL 5 mg/kg, CSF, mean) of 3.18 h and a Kp (dog, in vivo, male Beagle dogs (fasted), single SL 5 mg/kg, individual dogs, read-out: AUC Ratio (AUClast ratio of CSF to total plasma)) of 0.337. The AUC(0-inf) (dog, in vivo, male Beagle dogs (fasted), single SL 5 mg/kg, plasma, mean, read-out: AUCinf) was 162 ng·h/mL, the AUMCExtra (male Beagle dogs (fasted), single PO 10 mg/kg, plasma, individual dogs, 10 mg/kg) was 31.9% and the AUMCExtra (male Beagle dogs (fasted), single SL 5 mg/kg, CSF, individual dogs) was 5.44% and 18.5%. It also gave an AUCExtra [1] of 7.39%, an AUMCExtra [1] of 10.7% and an AUC(0-inf) (male, beagle, dog, CSF, po, 10 mg/kg, male Beagle dogs (fasted), single PO 10 mg/kg, CSF, individual dogs, read-out: AUCinf) of 181 ng·h/mL. The Kp (male, beagle, dog, in vivo, 5 mg/kg, AUClast ratio of CSF to total plasma) was 1.08 ± 0.964, the concentration at 2 h [2] was 76.2 ng/mL and the concentration at […] [2] was 289 ng/mL. It also gave an AUC(0-t) (male, beagle, dog, in vivo, 5 mg/kg, male Beagle dogs (fasted), single SL 5 mg/kg, CSF, individual dogs) of 122 ng·h/mL, an AUC(0-t) (male, beagle, dog, in vivo, 5 mg/kg, male Beagle dogs (fasted), single SL 5 mg/kg, CSF, mean) of 162 ng·h/mL and a Cmax (male, beagle, dog, in vivo, 5 mg/kg, male Beagle dogs (fasted), single SL 5 mg/kg, plasma, individual dogs, read-out: Cmax) of 162 ng/mL. It also gave a Cmax (male, beagle, dog, in vivo, 5 mg/kg, maximum CSF concentration (Cmax)) of 126 ± 144 ng/mL, a Cmax (male, beagle, dog, in vivo, 5 mg/kg, maximum plasma concentration (Cmax)) of 143 ± 24 ng/mL and a concentration at 0.5 h [3] of 162 ng/mL. The concentration at 1 h [3] was 116 ng/mL, the concentration at 2 h [3] was 10.8 ng/mL and the concentration at 4 h [3] was 3.39 ng/mL. It also gave a concentration at 8 h [3] of 2.74 ng/mL, a concentration at […] [3] of 151 ng/mL and a concentration at 0.5 h (male, beagle, dog, in vivo, 5 mg/kg, single SL 5 mg/kg, 0.500 h, individual animal, read-out: CSF concentration) of 6.23 ng/mL. For the same compound, the concentration at 8 h (male, beagle, dog, in vivo, 5 mg/kg, single SL 5 mg/kg, 8.00 h, individual animal, read-out: CSF concentration) was 1.16 ng/mL, the concentration at 24 h (male, beagle, dog, in vivo, 5 mg/kg, single SL 5 mg/kg, 24.0 h, individual animal, read-out: plasma concentration) was 1.49 ng/mL and the plasma concentration (male, beagle, dog, in vivo, po, 10 mg/kg, 1 h) was 63.3 ng/mL. It also gave a Kp (male, beagle, dog, in vivo, po, 10 mg/kg, AUC Ratio (AUClast ratio of CSF to total plasma)) of 0.33, a Kp (male, beagle, dog, in vivo, po, 10 mg/kg, AUClast ratio of CSF to total plasma) of 0.27 ± 0.0663 and a concentration at 0.5 h [4] of 48.5 ng/mL. The concentration at 4 h [4] was 8.15 ng/mL, the concentration at […] [4] was 24.7 ng/mL and the Tmax (male, beagle, dog, in vivo, po, 10 mg/kg, Tmax) was 0.5 h. The Cmax (male, beagle, dog, in vivo, po, 10 mg/kg, male Beagle dogs (fasted), single PO 10 mg/kg, plasma, individual dogs, read-out: Cmax) was 84.8 ng/mL, the concentration at 0.5 h [5] was 78 ng/mL and the concentration at 1 h [5] was 42.2 ng/mL. The concentration at 2 h [5] was 22.9 ng/mL, the concentration at 4 h [5] was 15.6 ng/mL and the concentration at 8 h [5] was 9.36 ng/mL. It also gave a concentration at 24 h [5] of 4.5 ng/mL, a concentration at […] [5] of 9.2 ng/mL and a concentration at 0.5 h (male, beagle, dog, in vivo, po, 10 mg/kg, single PO 10 mg/kg, 0.500 h, individual animal, read-out: CSF concentration) of 17.8 ng/mL. It also gave a concentration at 4 h (male, beagle, dog, in vivo, po, 10 mg/kg, single PO 10 mg/kg, 4.00 h, individual animal, read-out: CSF concentration) of 12.4 ng/mL, a plasma concentration (male, beagle, dog, in vivo, sc, 1 mg/kg, 1 h) of 20.7 ng/mL and a plasma concentration (male, beagle, dog, in vivo, sc, 1 mg/kg, 2 h) of 2.17 ng/mL. For the same compound, the Kp (male, beagle, dog, in vivo, sc, 1 mg/kg, AUC Ratio) was 0.806, the AUC(0-inf) (male, beagle, dog, in vivo, sc, 1 mg/kg, AUCinf) was 88.4 ± 23.8 ng·h/mL and the Kp (male, beagle, dog, in vivo, sc, 1 mg/kg, AUClast ratio of CSF to total plasma) was 0.964 ± 0.456. It also gave a concentration at 0.033 h [6] of 1.73 ng/mL, a concentration at 0.5 h [6] of 15.6 ng/mL and a concentration at 2 h [6] of 6.55 ng/mL. It also gave a concentration at 8 h [6] of 10.8 ng/mL, an AUC(0-t) (male, beagle, dog, in vivo, sc, 1 mg/kg, CSF, single SC 1 mg/kg, individual animal) of 119 ng·h/mL and a Cmax (male, beagle, dog, in vivo, sc, 1 mg/kg, plasma Cmax) of 110 ± 19.4 ng/mL. The concentration at 0.5 h [7] was 76.6 ng/mL, the concentration at 1 h [7] was 27.9 ng/mL and the concentration at 2 h [7] was 3.58 ng/mL. The concentration at 4 h [7] was 1.11 ng/mL, the concentration at 24 h [7] was 1.04 ng/mL and the concentration at […] [7] was 89.2 ng/mL. It also gave a Cmax (male, beagle, dog, in vivo, sc, 1 mg/kg, plasma, single SC 1 mg/kg, individual animal, read-out: Cmax) of 113 ng/mL, a concentration at 0.033 h (male, beagle, dog, in vivo, sc, 1 mg/kg, single SC 1 mg/kg, 119 s, individual animal, read-out: CSF concentration) of 22.6 ng/mL and a concentration at 0.033 h (male, beagle, dog, in vivo, sc, 1 mg/kg, single SC 1 mg/kg, 119 s, mean, read-out: CSF concentration) of 12.2 ng/mL. It also gave a concentration at 0.5 h (male, beagle, dog, in vivo, sc, 1 mg/kg, single SC 1 mg/kg, 0.500 h, individual animal, read-out: CSF concentration) of 17.8 ng/mL, a concentration at 1 h (male, beagle, dog, in vivo, sc, 1 mg/kg, single SC 1 mg/kg, 1.00 h, individual animal, read-out: plasma concentration) of 11.9 ng/mL and a concentration at 1 h (male, beagle, dog, in vivo, sc, 1 mg/kg, single SC 1 mg/kg, 1.00 h, mean, read-out: CSF concentration) of 11.6 ng/mL. It also gave a concentration at 2 h (male, beagle, dog, in vivo, sc, 1 mg/kg, single SC 1 mg/kg, 2.00 h, individual animal, read-out: CSF concentration) of 12.8 ng/mL, a concentration at 4 h (male, beagle, dog, in vivo, sc, 1 mg/kg, single SC 1 mg/kg, 4.00 h, individual animal, read-out: CSF concentration) of 10.2 ng/mL and a concentration at 8 h (male, beagle, dog, in vivo, sc, 1 mg/kg, single SC 1 mg/kg, 8.00 h, individual animal, read-out: CSF concentration) of 4.37 ng/mL. For the same compound, the Kp (male, beagle, dog, in vivo, AUClast ratio of CSF to total plasma, single SC 1 mg/kg, individual animal, read-out: AUC Ratio) was 1.48, the AUC(0-t) (male, beagle, dog, plasma, 5 mg/kg, male Beagle dogs (fasted), single SL 5 mg/kg, individual dogs) was 165 ng·h/mL and the AUC(0-inf) (male, beagle, dog, plasma, 5 mg/kg, male Beagle dogs (fasted), single SL 5 mg/kg, plasma, individual dogs, read-out: AUCinf) was 178 ng·h/mL. The AUC(0-inf) (male, beagle, dog, plasma, sc, 1 mg/kg, plasma, single SC 1 mg/kg, individual animal, read-out: AUCinf) was 115 ng·h/mL.
